# In patent US11453697B1, “Cyclic di-nucleotide compounds as sting agonists” (Merck Sharp & Dohme Corp., priority 2015, dated 2022):
# Like-named read-outs stand apart in the source and are kept apart here.
# Tests used:
# full-length HAQ STING = full-length HAQ STING (Homo sapiens (Human), UniProt Q86WV6, G230A/H232R/R293Q/R71H); assay: 3H-cGAMP filtration binding assay (HAQ STING); details: competition with tritiated cGAMP, HAQ STING membrane
# Description: The ability of compounds to bind STING is quantified by the ability to compete with tritiated cGAMP ligand for human STING receptor membrane using a radioactive filter-binding assay. The binding assay employs STING receptor obtained from Hi-Five cell membranes overexpressing full-length HAQ STING prepared in-house and tritiated cGAMP ligand also purified in-house.
# The ability of compounds to bind STING is quantified by their ability to compete with tritiated cGAMP ligand for human STING receptor membrane using a radioactive filter-binding assay.
# The basic HAQ STING filtration assay protocol is as follows:
# Compound and membrane then preincubated for 60 min at RT to allow compound binding to equilibrate. Following equilibration, 8 nM of [^3H] c-GAMP ligand was prepared by diluting into assay buffer, and 50 uL of this working stock was then manually added to each well of the assay plate. […] The filter plates were then dried at 55° C. for 30 min using a pressurized VWR oven before 30 uL of Ultima GoldF scintillate was added to each well. Tritium levels for each reaction well were then measured using a PerkinElmer TopCount plate reader.
# After normalization to controls, the percent activity for each compound concentration was calculated by measuring the amount of remaining radioactivity. The plot of percent activity versus the log of compound concentration was fit with a 4-parameter dose response equation to calculate EC50 values.
# [1] = system: IFN-β secretion in THP1 cells; assay: IFN-β secretion in THP1 cell culture (5 h); assay type: cell-based, human
# In short: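 THP1 cells incubated with compound for 5 h at 37 °C, 5% CO2, and secreted IFN-β in supernatant quantified by AlphaLISA. Percent effect normalised to 30 uM cGAMP positive control and 0.3% DMSO. EC50 from 4-parameter fit.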
# [2] = read-out: EC50 (nM), 3H-cGAMP filtration binding assay for HAQ STING
# [3] = IFN-β secretion in THP1 cell culture, 5 h, compound at 30 μM, percent activation relative to 2′3′-cGAMP
# Chain of full-length HAQ STING (Q86WV6 other isoform, or with tags, fused parts or gaps, stated change not applied): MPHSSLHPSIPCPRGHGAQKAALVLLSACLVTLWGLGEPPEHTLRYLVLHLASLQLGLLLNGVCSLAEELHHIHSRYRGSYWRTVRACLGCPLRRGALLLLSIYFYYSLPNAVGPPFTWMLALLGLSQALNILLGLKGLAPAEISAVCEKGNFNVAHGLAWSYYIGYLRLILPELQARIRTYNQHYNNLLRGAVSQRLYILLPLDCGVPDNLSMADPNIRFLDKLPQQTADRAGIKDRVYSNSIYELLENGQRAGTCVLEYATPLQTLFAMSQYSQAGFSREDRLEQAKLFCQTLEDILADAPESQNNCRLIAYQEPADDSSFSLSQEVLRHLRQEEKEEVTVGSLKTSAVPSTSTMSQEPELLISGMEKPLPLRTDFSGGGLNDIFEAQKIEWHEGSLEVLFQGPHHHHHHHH
EC50 (full-length HAQ STING; [2]) [nM],Structure (SMILES),"% Effect at 30 μM relative to 2′3′-cGAMP [1, 3] [%]","EC50 (full-length HAQ STING; EC50 (nM), 3H-cGAMP filtration binding assay for HAQ STING) [nM]",% Effect at 30 μM relative to 2′3′-cGAMP [1] [%]
91,"Nc1nc2c(ccn2[C@@H]2O[C@@H]3COP(=O)(O)O[C@H]4[C@@H](O)[C@H](n5cnc6c(N)ncnc65)O[C@@H]4COP(=O)(O)O[C@@H]2[C@@H]3O)c(=O)[nH]1 [Example 30, 2-amino-7-[(5R,7R,8R,12aR,14R,15R,15aS,16R)-14-(6-amino-9H-purin-9-yl)-2,10,15,16-tetrahydroxy-2,10-dioxidooctahydro-12H-5,8-methanofuro[3,2-l][1,3,6,9,11,2,10]pentaoxadiphosphacyclotetradecin-7-yl]-3,7-dihydro-4H-pyrrolo[2,3-d] pyrimidin-4-one]",131,–,–
2.3,"[N-]=[N+]=N[C@H]1[C@H]2OP(=O)(O)OC[C@H]3O[C@@H](n4cnc5c(O)ncnc54)[C@H](O)[C@@H]3OP(=O)(O)OC[C@H]1O[C@H]2n1cnc2c(=O)[nH]c(N)nc21 [Example 302, 2-amino-9-[(5S,7R,8R,12aR,14R,15R,15aS,16R)-16-azido-2,10,15-trihydroxy-14-(6-hydroxy-9H-purin-9-yl)-2,10-dioxidooctahydro-12H-5,8-methanofuro[3,2-l] [1,3,6,9,11,2,10]pentaoxadiphosphacyclo-tetradecin-7-yl]-1,9-dihydro-6H-purin-6-one]",103,–,–
121,"Nc1nc2c(ncn2[C@@H]2O[C@@]34COC3[C@@H]2OP(=O)(O)OC[C@H]2O[C@@H](n3cnc5c(N)ncnc53)[C@@H](O)C2OP(=O)(O)OC4)c(=O)[nH]1 (stereo partly drawn) [Example 17, 2-amino-9-[(2aR,5S,6aS,7R,8R,9aR,12S,14R,14aS,15R)-8-(6-amino-9H-purin-9-yl)-5,7,12-trihydroxy-5,12-dioxidohexahydro-6aH-2a,14-(epoxymethano)furo[3,2-d]oxeto[2,3-k][1,3,7,9,2,8]tetraoxadiphosphacyclotridecin-15(2H,3H)-yl]-1,9-dihydro-6H-purin-6-one]",81,–,–
2.6,"Nc1nc2c(ncn2[C@@H]2O[C@@H]3COP(=O)(O)O[C@H]4[C@@H](O)[C@H](n5cnc6c(N)ncnc65)O[C@@H]4COP(=O)(O)O[C@@H]2[C@@H]3N)c(=O)[nH]1 [Example 75, 2-Amino-9-[(5S,7R,8R,12aR,14R,15R,15aS,16R)-16-amino-14-(6-amino-9H-purin-9-yl)-2,10,15-trihydroxy-2,10-dioxidooctahydro-12H-5,8-methanofuro[3,2-l][1,3,6,9,11,2,10]pentaoxadiphosphacyclotetradecin-7-yl]-1,9-dihydro-6H-purin-6-one]",96,–,–
89.4,"CCc1ncnc2c1ncn2[C@@H]1O[C@@H]2COP(=O)(O)O[C@@H]3[C@H](O)[C@@H](COP(=O)(O)O[C@H]2[C@H]1O)O[C@H]3n1cnc2c(=O)[nH]c(N)nc21 [Example 56, 2-amino-9-[(5R,7R,8R,12aR,14R,15R,15aS,16R)-14-(6-ethyl-9H-purin-9-yl)-2,10,15,16-tetrahydroxy-2,10-dioxidooctahydro-12H-5,8-methanofuro[3,2-l][1,3,6,9,11,2,10]pentaoxadiphosphacyclotetradecin-7-yl]-1,9-dihydro-6H-purin-6-one]",64,–,–
2.7,"Nc1ncnc2c1ncn2[C@@H]1O[C@@H]2COP(=O)(O)O[C@@H]3C[C@@H](COP(=O)(O)O[C@H]2[C@H]1O)O[C@H]3n1cnc2c(=O)[nH]cnc21 [Example 50, 9-[(5S,7R,8R,12aR,14R,15R,15aS)-14-(6-amino-9H-purin-9-yl)-2,10,15-trihydroxy-2,10-dioxidooctahydro-12H-5,8-methanofuro[3,2-l][1,3,6,9,11,2,10]pentaoxadiphosphacyclotetradecin-7-yl]-1,9-dihydro-6H-purin-6-one]",85,–,–

# More lines, now with the values behind:
Structure (SMILES),EC50 (full-length HAQ STING; [2]) [nM],"% Effect at 30 μM relative to 2′3′-cGAMP [1, 3] [%]","EC50 (full-length HAQ STING; EC50 (nM), 3H-cGAMP filtration binding assay for HAQ STING) [nM]",% Effect at 30 μM relative to 2′3′-cGAMP [1] [%]
"Nc1ncnc2c1ncn2[C@@H]1O[C@@H]2COP(=O)(O)O[C@H]3C[C@H](n4cnc5c(=O)[nH]cnc54)O[C@@H]3COP(=O)(O)O[C@@H]1[C@@H]2O [Example 291, 9-[(5R,7R,8R,12aR,14R,15aS,16R)-7-(6-amino-9H-purin-9-yl)-2,10,16-trihydroxy-2,10-dioxidooctahydro-12H-5,8-methanofuro[3,2-l][1,3,6,9,11,2,10]pentaoxadiphosphacyclotetradecin-14-yl]-1,9-dihydro-6H-purin-6-one]",64.7,98,–,–
"Nc1nc2c(ncn2[C@@H]2O[C@@H]3COP(=O)(O)O[C@H]4[C@@H](O)[C@H](c5n[nH]c6c(N)ncnc56)O[C@@H]4COP(=O)(O)O[C@@H]2[C@@H]3O)c(=O)[nH]1 [Example 49, 2-amino-9-[(5R,7R,8R,12aR,14S,15S,15aS,16R)-14-(7-amino-1H-pyrazolo[4,3-d]pyrimidin-3-yl)-2,10,15,16-tetrahydroxy-2,10-dioxidooctahydro-12H-5,8-methanofuro[3,2-l][1,3,6,9,11,2,10]pentaoxadiphosphacyclotetradecin-7-yl]-1,9-dihydro-6H-purin-6-one]",30,74,–,–
"Nc1ncnc2c1ccn2[C@@H]1O[C@@H]2COP(=O)(O)O[C@@H]3[C@H](O)[C@@H](COP(=O)(O)O[C@H]2[C@H]1O)O[C@H]3n1cnc2c(=O)[nH]cnc21 [Example 35, 9-[(5R,7R,8R,12aR,14R,15R,15aS,16R)-14-(4-amino-7H-pyrrolo[2,3-d]pyrimidin-7-yl)-2,10,15,16-tetrahydroxy-2,10-dioxidooctahydro-12H-5,8-methanofuro[3,2-l][1,3,6,9,11,2,10]pentaoxadiphosphacyclotetradecin-7-yl]-1,9-dihydro-6H-purin-6-one]",7.9,51,–,–
"Nc1nc2c(ncn2[C@@H]2O[C@@H]3COP(=O)(S)O[C@H]4[C@H](F)[C@H](n5nnc6c(=O)[nH]cnc65)O[C@@H]4COP(=O)(S)O[C@@H]2C3)c(=O)[nH]1 (stereo partly drawn) [Example 320, 3-[(5S,7R,8R,12aR,14R,15S,15aR)-7-(2-amino-6-oxo-1,6-dihydro-9H-purin-9-yl)-15-fluoro-2,10-dioxido-2,10-disulfanyloctahydro-12H-5,8-methanofuro[3,2-l][1,3,6,9,11,2,10]pentaoxadiphosphacyclotetradecin-14-yl]-3,6-dihydro-7H-[1,2,3]triazolo[4,5-d]pyrimidin-7-one]",6.3,115,–,–
O=c1[nH]cnc2c1ncn2[C@@H]1O[C@@H]2COP(=O)(O)O[C@@H]3C[C@@H](COP(=O)(O)O[C@H]2[C@H]1O)O[C@H]3n1cnc2c(=O)[nH]cnc21 [Example 333],45.9,10,–,–
"Nc1nc2c(ncn2[C@@H]2O[C@@H]3COP(=O)(O)O[C@H]4[C@H](F)[C@H](n5cnc6c(=O)[nH]cnc65)O[C@@H]4COP(=O)(O)O[C@@H]2[C@@H]3O)c(=O)[nH]1 [Example 295, 2-amino-9-[(5R,7R,8R,12aR,14R,15S,15aR,16R)-15-fluoro-2,10,16-trihydroxy-2,10-dioxido-14-(6-oxo-1,6-dihydro-9H-purin-9-yl)octahydro-12H-5,8-methanofuro[3,2-l] [1,3,6,9,11,2,10]pentaoxadiphosphacyclo-tetradecin-7-yl]-1,9-dihydro-6H-purin-6-one]",29.6,70,–,–
"Nc1nc2c(ncn2[C@@H]2S[C@@H]3COP(=O)(O)O[C@H]4[C@@H](O)[C@H](n5cnc6c(=O)[nH]cnc65)O[C@@H]4COP(=O)(O)O[C@@H]2[C@@H]3O)c(=O)[nH]1 [Example 319, 2-amino-9-[(5R,7R,8R,12aR,14R,15R,15aS,16S)-2,10,15,16-tetrahydroxy-2,10-dioxido-14-(6-oxo-1,6-dihydro-9H-purin-9-yl)octahydro-12H-5,8-methanofuro[3,2-l][1,3,6,9,11,6,2,10]tetraoxathiadiphosphacyclotetradecin-7-yl]-1,9-dihydro-6H-purin-6-one]",7.3,143,–,–
"Nc1nc2c(ncn2[C@@H]2O[C@@H]3COP(=O)(O)O[C@H]4[C@@H](F)[C@H](n5cnc6c(=O)[nH]cnc65)O[C@@H]4COP(=O)(O)O[C@@H]2[C@@H]3O)c(=O)[nH]1 [Example 293, 2-amino-9-[(5R,7R,8R,12aR,14R,15R,15aR,16R)-15-fluoro-2,10,16-trihydroxy-2,10-dioxido-14-(6-oxo-1,6-dihydro-9H-purin-9-yl)octahydro-12H-5,8-methanofuro[3,2-l] [1,3,6,9,11,2,10]pentaoxadiphosphacyclo-tetradecin-7-yl]-1,9-dihydro-6H-purin-6-one]",1.9,86,–,–
"Nc1nc2c(ncn2[C@@H]2O[C@@H]3COP(O)(=S)O[C@H]4C[C@H](n5cnc6c(=O)[nH]cnc65)O[C@@H]4COP(O)(=S)O[C@@H]2[C@@H]3F)c(=O)[nH]1 (single isomer, unassigned) [Example 305]",–,–,326,50
